SMILES strings stand for the structures.

As a reminder, the inhibition is the relative decrease from the control value, in per cent.

The target of the assay is T1, human full-length recombinant PKC βII (Homo sapiens, UniProt P05771).
T1 construct: Active human full-length recombinant PKC βII; purchased Invitrogen GmbH, Darmstadt, Germany
T1 sequence (P05771 1-673 isoform P05771-2): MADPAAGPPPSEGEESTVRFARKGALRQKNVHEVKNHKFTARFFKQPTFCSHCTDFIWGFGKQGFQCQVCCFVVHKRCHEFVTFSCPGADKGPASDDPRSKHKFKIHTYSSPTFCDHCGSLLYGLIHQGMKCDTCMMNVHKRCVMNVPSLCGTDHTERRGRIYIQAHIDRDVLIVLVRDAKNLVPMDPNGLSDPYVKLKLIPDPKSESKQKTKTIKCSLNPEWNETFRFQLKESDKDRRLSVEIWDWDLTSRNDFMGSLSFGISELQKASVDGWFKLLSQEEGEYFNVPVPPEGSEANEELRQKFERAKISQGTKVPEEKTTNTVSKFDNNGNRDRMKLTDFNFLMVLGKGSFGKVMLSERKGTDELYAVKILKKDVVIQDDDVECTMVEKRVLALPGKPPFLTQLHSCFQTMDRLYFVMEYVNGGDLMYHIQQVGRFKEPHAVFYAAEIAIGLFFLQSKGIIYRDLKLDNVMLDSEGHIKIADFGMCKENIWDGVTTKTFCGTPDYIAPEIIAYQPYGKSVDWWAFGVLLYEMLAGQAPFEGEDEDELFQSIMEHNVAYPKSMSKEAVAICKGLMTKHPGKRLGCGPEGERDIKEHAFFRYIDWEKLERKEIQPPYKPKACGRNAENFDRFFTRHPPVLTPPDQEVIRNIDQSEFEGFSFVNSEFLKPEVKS
Kind of assay: Determination of PKC βII inhibition (Caliper mobility-shift kinase assay, Fluorescein-RFARKGSLRQKNV peptide substrate). The note with it: example compounds at a final concentration of 1.14 μM (±0.15 μM). Format: biochemical. The procedure, abridged: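 Full-length PKC βII (30 ng/ml in pre-dilution) with PS/DAG/Ca2+ activators, pH 7.4; fluorescein peptide and ATP at 3 μM and 120 μM before mixing. Reaction ran 60 min at 32 °C, was EDTA-stopped, and was read by mobility shift. % inhibition came from product/(substrate+product) peak heights, tested at 1.14 μM final.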
For `Cc1n[nH]c2nc(-c3ccc(O)cc3)cc(C(=O)NCC(C)(C)CN)c12` [Example 270, 6-(4-Hydroxy-phenyl)-3-methyl-1H-pyrazolo[3,4-b]pyridine-4-carboxylic acid (3-amino-2,2-dimethyl-propyl)-amide], the inhibition at 1.14 µM stood at 87%. For the compound `CC(=O)N1CCN(C(=O)c2cc(-c3ccc(O)cc3)nc3[nH]nc(C)c23)CC1` [Example 265, 1-{4-[6-(4-Hydroxy-phenyl)-3-methyl-1H-pyrazolo[3,4-b]pyridine-4-carbonyl]-piperazin-1-yl}-ethanone], the inhibition at 1.14 µM was 87%. With `COC[C@H]1CNCCN1C(=O)c1cc(-c2ccc(O)cc2)nc2[nH]nc(C)c12` [Example 21, [6-(4-Hydroxy-phenyl)-3-methyl-1H-pyrazolo[3,4-b]pyridin-4-yl]-((R)-2-methoxymethyl-piperazin-1-yl)-methanone] the figure was 121%; with `Cc1n[nH]c2nc(-c3ccc(O)c(F)c3)cc(C(=O)N3CC(N)C3)c12` [Example 315, (3-Amino-azetidin-1-yl)-[6-(3-fluoro-4-hydroxy-phenyl)-3-methyl-1H-pyrazolo[3,4-b]pyridin-4-yl]-methanone], 62%. On to `Cc1n[nH]c2nc(-c3ccc(O)c(F)c3)cc(C(=O)NC3CCC(N)CC3)c12` (centres unmarked) [Example 338, 6-(3-Fluoro-4-hydroxy-phenyl)-3-methyl-1H-pyrazolo[3,4-b]pyridine-4-carboxylic acid (4-amino-cyclohexyl)-amide], for which the inhibition at 1.14 µM turned out to be 68%. As to `Cc1n[nH]c2nc(-c3ccc(O)cc3)cc(C(=O)N3CCC(C)(N)C3)c12` (centres unmarked) [Example 122, (3-Amino-3-methyl-pyrrolidin-1-yl)-[6-(4-hydroxy-phenyl)-3-methyl-1H-pyrazolo[3,4-b]pyridin-4-yl]-methanone], the inhibition at 1.14 µM is 89%. With `Cc1n[nH]c2nc(-c3ccc(O)c(F)c3)cc(C(=O)NCC3CCNC3)c12` (centres unmarked) [Example 354, 6-(3-Fluoro-4-hydroxy-phenyl)-3-methyl-1H-pyrazolo[3,4-b]pyridine-4-carboxylic acid (pyrrolidin-3-ylmethyl)-amide] the figure was 52%; with `Cc1n[nH]c2nc(-c3ccc(O)cc3)cc(C(=O)N3CCC4(CCNC4)CC3)c12` [Example 257, (2,8-Diaza-spiro[4.5]dec-8-yl)-[6-(4-hydroxy-phenyl)-3-methyl-1H-pyrazolo[3,4-b]pyridin-4-yl]-methanone], 82%. With `CCc1n[nH]c2nc(-c3ccc(O)cc3)cc(C(=O)N3CCC(NC)C3)c12` (centres unmarked) [Example 178, [3-Ethyl-6-(4-hydroxy-phenyl)-1H-pyrazolo[3,4-b]pyridin-4-yl]-(3-methylamino-pyrrolidin-1-yl)-methanone] the figure was 71%.

In the case of `Cc1n[nH]c2nc(-c3ccc(O)c(F)c3)cc(C(=O)N3CC4CNCC4C3)c12` (centres unmarked) [Example 289, [6-(3-Fluoro-4-hydroxy-phenyl)-3-methyl-1H-pyrazolo[3,4-b]pyridin-4-yl]-(hexahydro-pyrrolo[3,4-c]pyrrol-2-yl)-methanone], the inhibition at 1.14 µM was 84%. With `Cc1n[nH]c2nc(-c3ccc(O)c(F)c3)cc(C(=O)N[C@H]3C[C@@H]3N)c12` (racemic) [Example 307, 6-(3-Fluoro-4-hydroxy-phenyl)-3-methyl-1H-pyrazolo[3,4-b]pyridine-4-carboxylic acid (trans-2-amino-cyclopropyl)-amide] the figure was 59%.

For `CCc1n[nH]c2nc(-c3ccc(O)cc3)cc(C(=O)NCC3CCC(=O)N3)c12` (centres unmarked) [Example 186, 3-Ethyl-6-(4-hydroxy-phenyl)-1H-pyrazolo[3,4-b]pyridine-4-carboxylic acid (5-oxo-pyrrolidin-2-ylmethyl)-amide], the inhibition at 1.14 µM was found to be 33%. With `CCc1n[nH]c2nc(-c3ccc(O)cc3)cc(C(=O)N3CCNCC3)c12` [Example 3, [3-Ethyl-6-(4-hydroxy-phenyl)-1H-pyrazolo[3,4-b]pyridin-4-yl]-piperazin-1-yl-methanone] the figure was 82%; with `Cc1n[nH]c2nc(-c3ccc(O)cc3)cc(C(=O)NCC(c3ccccc3)N3CCNCC3)c12` (centres unmarked) [Example 393, 6-(4-Hydroxy-phenyl)-3-methyl-1H-pyrazolo[3,4-b]pyridine-4-carboxylic acid (2-phenyl-2-piperazin-1-yl-ethyl)-amide], 55%; with `Cc1n[nH]c2nc(-c3ccc(O)cc3)cc(C(=O)N3CCNCC3c3ccccc3)c12` (centres unmarked) [Example 26, [6-(4-Hydroxy-phenyl)-3-methyl-1H-pyrazolo[3,4-b]pyridin-4-yl]-(2-phenyl-piperazin-1-yl)-methanone], 97%. With `Cc1n[nH]c2nc(-c3ccc(O)cc3F)cc(C(=O)N3CCNCC3)c12` [Example 11, [6-(2-Fluoro-4-hydroxy-phenyl)-3-methyl-1H-pyrazolo[3,4-b]pyridin-4-yl]-piperazin-1-yl-methanone] the figure was 101%; with `Cc1n[nH]c2nc(-c3ccc(O)cc3)cc(C(=O)N3CC(N)C3)c12` [Example 247, (3-Amino-azetidin-1-yl)-[6-(4-hydroxy-phenyl)-3-methyl-1H-pyrazolo[3,4-b]pyridin-4-yl]-methanone], 69%; with `Cc1n[nH]c2nc(-c3ccc(O)cc3)cc(C(=O)NC3CCCNC3)c12` (centres unmarked) [Example 242, 6-(4-Hydroxy-phenyl)-3-methyl-1H-pyrazolo[3,4-b]pyridine-4-carboxylic acid piperidin-3-ylamide], 87%.

For the compound `COC(=O)[C@H]1CNCCN1C(=O)c1cc(-c2ccc(O)cc2)nc2[nH]nc(C)c12` [Example 206, (R)-1-[6-(4-Hydroxy-phenyl)-3-methyl-1H-pyrazolo[3,4-b]pyridine-4-carbonyl]-piperazine-2-carboxylic acid methyl ester], the inhibition at 1.14 µM was determined as 98%. `Cc1n[nH]c2nc(-c3ccc(O)cc3Cl)cc(C(=O)N3CCNCC3)c12` [Example 6, [6-(2-Chloro-4-hydroxy-phenyl)-3-methyl-1H-pyrazolo[3,4-b]pyridin-4-yl]-piperazin-1-yl-methanone]: the inhibition at 1.14 µM turned out to be 97%.

With `CCC[C@H]1CN(C(=O)c2cc(-c3ccc(O)cc3F)nc3[nH]nc(C)c23)CCN1` [Example 422, [6-(2-Fluoro-4-hydroxy-phenyl)-3-methyl-1H-pyrazolo[3,4-b]pyridin-4-yl]-((S)-3-propyl-piperazin-1-yl)-methanone], the inhibition at 1.14 µM is 95%. With `Cc1n[nH]c2nc(-c3ccc(O)c(F)c3)cc(C(=O)NC3CC(C)(C)N(C)C(C)(C)C3)c12` [Example 364, 6-(3-Fluoro-4-hydroxy-phenyl)-3-methyl-1H-pyrazolo[3,4-b]pyridine-4-carboxylic acid (1,2,2,6,6-pentamethyl-piperidin-4-yl)-amide] the figure was 38%; with `Cc1n[nH]c2nc(-c3ccc(O)cc3F)cc(C(=O)N3C[C@@H](C)N(CC4CCOCC4)C[C@@H]3C)c12` [Example 454, [(2S,5R)-2,5-Dimethyl-4-(tetra-hydro-pyran-4-yl-methyl)-piperazin-1-yl]-[6-(2-fluoro-4-hydroxy-phenyl)-3-methyl-1H-pyrazolo[3,4-b]pyridin-4-yl]-methanone], 81%.
